# Legend:
# melanoma MelJuso = assay: In vivo efficacy, Mouse Xenograft Model (melanoma MelJuso); settings: 50 mg/kg i.p. daily for 14 days, FIG. 1; for Tumor growth after treatment: vs vehicle
# Procedure: (§1) The administered compounds were tested in vivo in the mouse xenograft model bearing human cancer cells. Briefly, female athymic nude mice strain NCRNU-M (5-10 weeks old, 20-25 grams in weight; Taconic, Germantown, N.Y.) was maintained in pathogen-free conditions. Three human cancer cell lines: NSCLC A549, melanoma MelJuso, and mesothelioma MS-1 were used. Five or ten mice were used in each group and injected s.c. with 3×10^6 cancer cells in the dorsal area in a volume of 100 μl. After inoculation, human cancer cells were allowed to grow in mice for 10-13 days to become visible tumor nodules. Animals were then injected with a compound of the embodiments at a dose of 50 mg/kg body weight (1 mg/mouse per day). Vehicle alone was used as control. The compounds and controls were adjusted in 40 ul volume for i.p. injection in the abdomens of the mice. Injections were performed daily around the same time for 14 days. Tumors were allowed to grow for 1-2 additional weeks after completion of the compound treatments. Tumor size was measured every three to four days, and tumor volumes were calculated using width (x) and length (y) (x^2y/2, where x<y). Throughout this period, general toxicity of the treatments was also monitored by measuring body weight of the mice. Data was presented as mean values (±S.D.).
# In vivo efficacy study of Compounds 1, 2, 4, and 6 were performed using a Mouse Xenograft Model (Melanoma MelJuso). Mice were injected s.c. with 3×10^6 cells in the dorsal area in a volume of 100 μl. 13 days after inoculation, the mice started receiving treatments with the administered compound at a dose of 50 mg/kg body weight daily for 14 days (n=10). Vehicle alone was used as control (n=10). The administered compounds and vehicle were adjusted in a volume of 40 μl for i.p. injection in the abdomens of the mice. Tumor size and tumor volumes were calculated as described above.
# mesothelioma MS-1 = assay: In vivo efficacy, Mouse Xenograft Model (mesothelioma MS-1); settings: MS-1 xenograft, 50 mg/kg i.p. daily for 14 days, vs control group, FIG. 2
# Procedure: as §1, with “Data was presented as mean values (±S.D.).” left out
# Model (Mesothelioma MS-1). […] Tumor sizes was measured twice weekly until the completion of the experiments. […]
# NSCLC A549 = assay: In vivo efficacy, Mouse Xenograft Model (lung cancer A549); settings: 50 mg/kg i.p. daily for 14 days then another 7 days, tumors weighed day 43, vs control group, FIG. 3
# Procedure: as §1, with “Tumors were allowed to grow for 1-2 additional weeks after completion of the compound treatments.” left out, “Data was presented as mean values (±S.D.).” left out
# In vivo efficacy study of Compounds 1 and 4 in Mouse Xenograft Model (NSCLC A549) was examined. […] 43 days after the initial tumor inoculation, tumors were dissected from the mice of each group and their weights were measured using a scale. […]
# [1] = tested on: Hedgehog signaling pathway; assay: Quantitative real-time RT-PCR of Hh pathway genes in xenograft tumors; format: in vivo, mouse; settings: Melanoma tumor (MelJuso) xenograft, pooled tumor from two mice, FIG. 4
# Procedure: (§2) Total RNA was isolated using Qiagen RNeasy Mini Kit (Valencia, Calif.). Hybridization probes and primers (Table 1) were purchased from Applied Biosystems (ABI, Foster City, Calif.). cDNA synthesis and Taqman® PCR were performed according to the manufactures' protocols. The gene expression was assayed in triplicate in ABI 7300 Real-time PCR System. Samples were normalized to their housekeeping gene GAPDH and then calculated by using 2^−dCt method.
# To examine whether Compounds 1, 2, 4, and 6 suppressed tumor growth through inhibition of the Hedgehog signaling pathway in vivo, expression of the key components and direct target genes of the Hh pathway (e.g. Gli1, Gli2, Gli3, HHIP and Cyclin D1) were analyzed by quantitative real-time RT-PCR using total RNA isolated from the xenograft tumors. GAPDH served as a control. This RT-PCR analysis was performed using a “pooled” tumor from two randomly selected mice of each group with reasonable size tumors. […] The results are shown in FIG. 4, where C is control and V is vehicle.
# Wnt signaling pathway = assay: Quantitative real-time RT-PCR of Wnt pathway genes in xenograft tumors; format: in vivo, mouse; settings: Melanoma tumor xenograft, compared to controls, FIG. 4
# Procedure: as §2
# To examine whether Compounds 1, 2, 4, and 6 suppressed tumor growth through inhibition of the Wnt signaling pathway in vivo, expression of the key components and direct target genes of the Wnt pathway (e.g. Wnt2, Axin2, EGFR, and Cyclin D1) were analyzed by quantitative real-time RT-PCR using total RNA isolated from the xenograft tumors. GAPDH served as a control. This RT-PCR analysis was performed using a “pooled” tumor from two randomly selected mice of each group with reasonable size tumors. […] The results are shown in FIG. 4, where C is control and V is vehicle.
# [2] = Preliminary in vivo toxicity: leukocyte population and body weight after in vivo treatment; design: species or system mouse; settings: mice; for Changes of leukocyte population: at completion of the in vivo studies, FIG. 5; for Loss of body weight: during the course of drug administration, FIG. 6
# Procedure: as §1
# (§3) After the in vivo studies were completed, different organs were resected from mice. These organs included liver, lung, heart, kidney, intestines, ovary, brain, spleen, skin, and muscle. The specimens were fixed in 4% buffered formaldehyde, embedded in paraffin, sectioned, and histologically analyzed by hematoxylin and eosin (HE) staining. The HE stained slides were examined by a mouse pathologist for toxicity evidence from all the organs as compared with vehicle controls. In addition, leukocytes (WBC: white blood cell, NE: neutrophil, LY: lymphocyte, MO: monocyte, EO: eosinophil, BA: basophil) from each animal from all treatment groups were collected and leukocyte population was counted through a blood cell counter.
# (§4) As preliminary in vivo toxicity study of Compounds 1, 2, 4, and 6, it was examined if there were changes of leukocyte population and loss of body weight in the mice after the treatment. At the completion of the in vivo studies as described herein, leukocytes (WBC: white blood cell, NE: neutrophil, LY: lymphocyte, MO: monocyte, EO: eosinophil, BA: basophil) from each animal from all treatment groups were collected and leukocyte population was counted through a blood cell counter. Body weights of control groups (n=10) and the treated group (n=10) were measured using a scale during the course of drug administration. […] In an additional toxicity study, effect of different doses of compounds 4 and 6 on the body weight of mice was examined. The compounds were i.p. injected in the abdomens at 3 different doses: 25, 50, and 100 mg/kg body weight to mice (3 mice per dosing group) for 6 consecutive days.
# [3] = Histological examination (H&E) of organs for toxicity; format: in vivo; settings: mice, i.p. two doses daily for 6 days, FIGS. 8-11
# Description: as §3
# To analyze toxicity of the Compounds 1, 2, 4, and 6 in vivo, each group (three mice) was i.p. injected with two doses of each Compound daily for 6 days, and then major mouse organs, such as liver, spleen, kidney, and heart were resected from the mice. The specimens will be fixed in 4% buffered formaldehyde, embedded in paraffin, sectioned and histologically analyzed by hematoxylin and eosin (H&E) staining.
# [4] = Additional toxicity study: body weight at different doses; format: in vivo, mouse; settings: mice, i.p. 25, 50 and 100 mg/kg for 6 consecutive days, FIG. 7
# Procedure: Each dosing group contained 3 mice. The body weight of mice was measured using a scale. Results are the means±SD (error bars).
# as §4
# human NSCLC cell lines = assay: Combination treatment, MTS cell proliferation assay, NSCLC cell lines; format: cell-based; settings: lung cancer cells, 72 hours, Combination Index
# Description: (§5) Another assay for determining the number of viable cells in proliferation or cytotoxicity assays is the MTS assay, a colorimetric method. MTS assay reagents are commercially available (Promega Corp., Madison, Wis.). The reagent contains a tetrazolium compound [3-(4,5-dimethylthiazol-2-yl)-5-(3-carboxymethoxyphenyl)-2-(4-sulfophenyl)-2H-tetrazolium, inner salt; MTS] and an electron coupling reagent (phenazine ethosulfate; PES). PES has enhanced chemical stability, which allows it to be combined with MTS to form a stable solution. The MTS tetrazolium compound (Owen's reagent) is bioreduced by cells into a colored formazan product that is soluble in tissue culture medium. This conversion may be accomplished by NADPH or NADH produced by dehydrogenase enzymes in metabolically active cells. The quantity of formazan product as measured by the absorbance at 490 nm is directly proportional to the number of living cells in culture. Because the MTS formazan product is soluble in tissue culture medium, this assay requires fewer steps than procedures that use tetrazolium compounds such as MTT. The formazan product of MTT reduction is a crystalline precipitate that requires an additional step in the procedure to dissolve the crystals before recording absorbance readings at 570 nm.
# (§6) Combination treatments of the Compounds with several chemotherapies: erlotinib (Tarceva®), PI3K inhibitor LY294002, TGFβ inhibitor SB431542, and pemetrexed (Alimta®) were performed in human NSCLC and MM cell lines (FIGS. 12-17). In all experiments, NSCLC and MM cell lines were treated with different doses of each compound or combination for 72 hours, and MTS assays were performed to determine the cell proliferations. Combination Index (CI), calculated by CalcuSyn software (Biosoft, Cambridge, UK), was applied to describe the effect of the combination effects of two compounds, where CI<1 indicates Synergism, CI=1 indicates Additive effects, and CI>1 indicates Antagonism. Student's t-tests were applied for statistical analysis.
# [5] = tested on: human MM cell lines (mesothelioma cells); assay: Combination treatment, MTS cell proliferation assay, MM (mesothelioma) cell lines; format: cell-based; settings: 72 hours, Combination Index
# Description: as §5, §6
Structure (SMILES),Tumor weight after treatment (melanoma MelJuso),Tumor growth after treatment (melanoma MelJuso),Tumor weight after treatment (mesothelioma MS-1),Tumor weight after treatment (NSCLC A549),"Hh signaling (expression of Gli1, Gli2, Gli3, HHIP, Cyclin D1) in tumor [1]",Expression of the key indicator of canonical Wnt activation in tumor (Wnt signaling pathway),Changes of leukocyte population [2],Loss of body weight [2],"Toxicity in organs (liver, spleen, kidney, heart), H&E histology [3]",Loss of body weight [4],Combination effect with erlotinib (Tarceva) (human NSCLC cell lines; FIG. 12),Combination effect with erlotinib (Tarceva) ([5]; FIG. 13),Combination effect with PI3K inhibitor LY294002 (human NSCLC cell lines; FIG. 14),Combination effect with TGFβ inhibitor SB431542 (human NSCLC cell lines; FIG. 16),Combination effect with PI3K inhibitor LY294002 ([5]; FIG. 15),Combination effect with pemetrexed (Alimta) ([5]; FIG. 17)
"CC(C)(CO)CCCNC(=O)C1C(c2ccccc2)=NN(c2ccccc2)C1c1ccsc1 (stereo not drawn) [Compound 1, 1,3-diphenyl-5-thiophen-3-yl-4,5-dihydro-1H-pyrazole-4-carboxylic acid (5-hydroxy-4,4-dimethyl-pentyl)-amide]",significantly decreased,dramatically suppressed,significantly decreased,significantly decreased,inhibited,significantly down-regulated,No noticeable changes,No noticeable changes of leukocyte population or loss of the body weight,No noticeable toxicity,,,,,,,
"O=C(NCc1ccc(O)cc1)C1C(c2ccccc2)=NN(c2ccccc2)C1c1ccccc1 (stereo not drawn) [Compound 2, 1,3,5-triphenyl-4,5-dihydro-1H-pyrazole-4-carboxylic acid 4-hydroxy-benzylamide]",significantly decreased,dramatically suppressed,,,inhibited,significantly down-regulated,No noticeable changes,No noticeable changes of leukocyte population or loss of the body weight,No noticeable toxicity,,,,,,,
"CCCC1C(C(=O)NCCCC(C)(C)CO)C(c2ccc(F)cc2)=NN1c1ccccc1 (stereo not drawn) [Compound 4, 3-(4-fluoro-phenyl)-1-phenyl-5-propyl-4,5-dihydro-1H-pyrazole-4-carboxylic acid (5-hydroxy-4,4-dimethyl-pentyl)-amide]",significantly decreased,dramatically suppressed,significantly decreased,significantly decreased,inhibited,significantly down-regulated,No noticeable changes,No noticeable changes of leukocyte population or loss of the body weight,No noticeable toxicity,no noticeable loss,synergy,synergy,,,,
"CC(C)(CO)CCCNC(=O)C1C(c2ccc(F)cc2)=NN(c2ccccc2)C1c1cccc(F)c1 (stereo not drawn) [Compound 6, 3-(4-fluoro-phenyl)-5-(3-fluoro-phenyl)-1-phenyl-4,5-dihydro-1H-pyrazole-4-carboxylic acid (5-hydroxy-4,4-dimethyl-pentyl)-amide]",significantly decreased,dramatically suppressed,,,inhibited,,No noticeable changes,No noticeable changes of leukocyte population or loss of the body weight,No noticeable toxicity,no noticeable loss,,,synergy,synergy,synergy,synergy

# Reference: US9370521B2, “Targeting GLI proteins in human cancer by small molecules” (The Regents of the University of California, priority 2011, dated 2016)
